Each structure is given as a SMILES string. Structures can show the parent of a compound that is named as a salt. Where two headings read alike, the source gives them in different places.

These results are taken from patent US6177438A, “Morphinan derivatives and pharmaceutical use thereof” (priority 1993, dated 2001).

In data set [1] the test system is cultured nerve cells (cerebral cortex). Particulars: 10 mM glutamic acid, 24 hours.
Data set [2] has the same test system. Kind of data set: cells. The note with it: Rattus norvegicus, Cerebral cortex neuron, 24 h, read-out: ED50 (protection against glutamic acid toxicity).
Another data set addresses T1, κ receptor (Mus musculus, UniProt P33534).
T1 construct: from tissue; host or cells: mouse (male ddy) vas deferens
Put plainly: Opioid activity test using an extracted mouse vas deferens preparation, Ke with norBNI. Further details: species or system male ddy mouse. Particulars: for receptor selectivity of agonist (κ): in words; for Ke, norBNI: κ, norBNI added.

The subject of data set [3] is extracted mouse vas deferens preparation. Put plainly: Opioid activity test using an extracted mouse vas deferens preparation (suppression of electrically induced contractions). Further details: species or system male ddy mouse. Particulars: electrical stimulus 0.1 Hz, 37° C. Put shortly: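 Male ddY mouse vas deferens in Krebs-Henseleit at 37° C, 5% CO2/95% O2, field-stimulated at 0.1 Hz, 5.0 ms; isometric contractions recorded. After adding naloxone, NTI or norBNI, test compound was added cumulatively after ~20 min; Ke derived from the difference in agonist efficacies.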

The next data set addresses T2, δ receptor (Mus musculus, UniProt P32300).
T2 construct: The vas deferens extracted from the animal was suspended in a Magnus tube; from tissue; host or cells: mouse (male ddy) vas deferens
Further details: species or system male ddy mouse.

The next data set concerns the target T3, μ receptor (Mus musculus, UniProt P42866).
T3 construct: naloxone as mu antagonist (printed 'agonist')
Put plainly: Opioid activity test using an extracted mouse vas deferens preparation, Ke with naloxone. The arrangement: species or system male ddy mouse. Particulars: naloxone added. As for the experimental part: A male ddy mouse was used in this test. The vas deferens extracted from the animal was suspended in a Magnus tube filled with Krebes-Henseleit solution (NaCl 118 mM; KCl 4.7 mM; CaCl2 2.5 mM; KH2 PO4 1.1 mM; NaHCO3 25 mM; Glucose 11 mM) warmed to 37° C. and ventilated with 5% carbon dioxide and 95% oxygen. Electrical stimulus was performed at 0.1 Hz for 5.0 ms by means of ring-shaped platinum electrodes located above and below. Tissue contractions were recorded on a polygraph using an isometric transducer.
After adequately washing with nutrient solution and the contraction reaction stabilized, the μ agonist, naloxone, the δ agonist, NTI, or the κ agonist, norBNI, was added after which the test compound was again cumulatively added after roughly 20 minutes. The Ke value was calculated using the following calculation formula from the difference in the efficacies of both agonists.
Ke=[Conc. of added agonist]/(IC50 ratio-1)
IC50 ratio=IC50 in the presence of agonist/IC50 in the absence of agonist

The subject of data set [4] is acetic acid-induced writhing in ddy mice. Put plainly: animal or person. The class given is in vivo, 5 week old ddy mice. The note with it: for ED50: s.c. 15 minutes before acetic acid; for analgesic activity: s.c., in words. How it is done: 5 week old ddy mice were used in this test. After intraperitoneal administration of 0.1 ml of 0.6% aqueous acetic acid per 10 g of body weight, the number of writhing reactions that occurred in 10 minutes starting 10 minutes after administration was evaluated for the indicator. The test drug was administered subcutaneously into the backs of the animals 15 minutes before administration of acetic acid.

Data set [5] is described as follows: Diuretic action (urine output for 5 hours after physiological saline loading in rats). The format is in vivo, male Wistar rats. Particulars: for ED (200% urine output) / ED (500% urine output): Rattus norvegicus, sc, 5 hours after saline 20 ml/kg p.o.; for ED (200% urine output): dose giving urine output of 200 (non-dosed group = 100); for ED (500% urine output): dose giving urine output of 500 (non-dosed group = 100); for Diuretic action (in words): s.c., from ED200 values. Put shortly: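 Male Wistar rats (7-8 weeks), water withheld 1 h, bladder emptied, drug given subcutaneously; 30 min later 20 ml/kg saline orally. Urine collected 5 h after saline loading in metabolic cages; ED200 and ED500 are doses giving urine output of 200 and 500 relative to non-dosed group at 100.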

[6] abbreviates: Mus musculus, sc, read-out: ED50.
Where [7] appears, read: mouse vas deferens, δ, NTI added.

T3 sequence (P42866 whole entry): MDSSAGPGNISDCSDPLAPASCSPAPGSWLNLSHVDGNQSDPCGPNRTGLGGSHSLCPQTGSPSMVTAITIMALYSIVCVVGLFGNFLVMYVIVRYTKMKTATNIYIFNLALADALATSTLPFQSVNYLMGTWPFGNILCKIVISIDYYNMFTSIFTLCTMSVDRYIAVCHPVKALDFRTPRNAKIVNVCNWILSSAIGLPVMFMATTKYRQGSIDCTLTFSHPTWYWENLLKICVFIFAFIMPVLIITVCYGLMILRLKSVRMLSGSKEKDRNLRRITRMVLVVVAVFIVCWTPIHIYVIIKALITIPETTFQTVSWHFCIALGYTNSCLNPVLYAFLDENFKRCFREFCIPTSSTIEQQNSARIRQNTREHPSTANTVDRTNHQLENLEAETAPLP
T1 sequence (P33534 whole entry): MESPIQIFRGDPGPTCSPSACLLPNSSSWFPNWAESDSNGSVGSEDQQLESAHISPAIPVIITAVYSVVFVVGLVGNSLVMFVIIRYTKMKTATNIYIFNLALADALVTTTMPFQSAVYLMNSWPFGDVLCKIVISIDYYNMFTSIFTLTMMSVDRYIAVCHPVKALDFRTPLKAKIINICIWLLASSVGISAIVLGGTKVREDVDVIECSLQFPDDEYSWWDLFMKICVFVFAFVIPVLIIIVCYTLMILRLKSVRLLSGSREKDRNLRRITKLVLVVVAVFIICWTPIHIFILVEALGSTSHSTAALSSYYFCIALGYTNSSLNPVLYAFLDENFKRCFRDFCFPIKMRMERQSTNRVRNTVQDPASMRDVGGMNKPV
T2 sequence (P32300 whole entry): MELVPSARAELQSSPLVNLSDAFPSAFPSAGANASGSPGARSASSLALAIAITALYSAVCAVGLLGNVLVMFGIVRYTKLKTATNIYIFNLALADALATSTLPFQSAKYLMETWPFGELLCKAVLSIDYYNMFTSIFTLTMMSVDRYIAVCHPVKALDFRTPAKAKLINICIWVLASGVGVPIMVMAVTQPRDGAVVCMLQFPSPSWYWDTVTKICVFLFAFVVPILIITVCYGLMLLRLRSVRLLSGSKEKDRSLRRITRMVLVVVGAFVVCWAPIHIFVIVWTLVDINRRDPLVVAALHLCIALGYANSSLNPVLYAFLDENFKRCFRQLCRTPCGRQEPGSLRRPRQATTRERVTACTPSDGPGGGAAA

Turning to `CN(C(=O)Cc1cccc(C(F)(F)F)c1)[C@@H]1CC[C@@]2(O)[C@H]3Cc4ccc(O)c5c4[C@@]2(CCN3CC2CC2)[C@H]1O5` [Compound 116, 17-cyclopropylmethyl-3,14β-dihydroxy-4,5α-epoxy-6β-(N-methyl-3-trifluoromethylphenylacetamido)morphinan.cndot.hydrochloride], the “Protective action against cytotoxicity caused by glutamic acid (in words)” value (from here on “Protective action”) in data set [1] is “clearly demonstrated action that protects nerve cells from cytotoxicity caused by glutamic acid”. Also, the EC50 in data set [2] is 2370 nM.
Consider `CN(CCc1ccc(Cl)c(Cl)c1)[C@@H]1CC[C@@]2(O)[C@H]3Cc4ccc(O)c5c4[C@@]2(CCN3CC2CC2)[C@H]1O5` [Compound 136, 17-Cyclopropylmethyl-3,14β-dihydroxy-4,5α-epoxy-6β-[N-methyl-N-2-(3,4-dichlorophenyl)ethylamino]morphinan.cndot.1.9 hydrochloride], for which, in data set [1], the “Protective action” value is “clearly demonstrated action that protects nerve cells from cytotoxicity caused by glutamic acid”. Further, the EC50 in data set [2] amounted to 640 nM.
On to `O=C(Cc1ccc(Cl)c(Cl)c1)N[C@H]1CC[C@@]2(O)[C@H]3Cc4ccc(O)c5c4[C@@]2(CCN3CC2CC2)[C@H]1O5` [Compound 52, 17-cyclopropylmethyl-4,5α-epoxy-3,14β-dihydroxy-6α-(3,4-dichlorophenylacetoamido)morphinan.cndot.hydrochloride], for which the “Protective action” value in data set [1] is on record as “clearly demonstrated action that protects nerve cells from cytotoxicity caused by glutamic acid”. Also, in data set [2], the EC50 worked out at 1710 nM.
Turning to `CN(CCc1ccc(Cl)c(Cl)c1)[C@H]1CC[C@@]2(O)[C@H]3Cc4ccc(O)c5c4[C@@]2(CCN3CC2CC2)[C@H]1O5` [Compound 135, 17-Cyclopropylmethyl-3,14β-dihydroxy-4,5α-epoxy-6α-[N-methyl-N-2-(3,4-dichlorophenyl)ethylamino]morphinan.cndot.1.8 hydrochloride], the “Protective action” value in data set [1] is recorded as “clearly demonstrated action that protects nerve cells from cytotoxicity caused by glutamic acid”. Also, the EC50 in data set [2] came to 290 nM.
On to `CN(C(=O)/C=C/c1ccoc1)[C@H]1CC[C@@]2(O)[C@H]3Cc4ccc(O)c5c4[C@@]2(CCN3CC2CC2)[C@H]1O5` [Compound 89, 17-cyclopropylmethyl-3,14β-dihydroxy-4,5α-epoxy-6α-[N-methyl-trans-3-(3-furyl)acrylamido]morphinan.cndot.tartrate], for which, at κ receptor, the “receptor selectivity of agonist (κ)” value is listed as “selective agonists for κ receptors” and the “Ke, norBNI” value was determined as 0.85 nM. In addition, 0.0934 nM corresponded to half-maximal inhibition in data set [3] (IC50). Further, the “Ke, NTI” value on δ receptor is listed as 15.6 nM. Also, the “Ke, Naloxone” value on μ receptor was 18.3 nM. In addition, in data set [4] (setting [6]), the ED50 (as a rule, the dose at which the effect has come halfway, by size or by number of responders) amounted to 4.71 µg/kg. In data set [5], this compound returned an ED (200% urine output) of 1.2 µg/kg and an ED (500% urine output) of 16.2 µg/kg.
In the case of `CCCCCC(=O)N(C)[C@H]1CC[C@@]2(O)[C@H]3Cc4ccc(O)c5c4[C@@]2(CCN3CC2CC2)[C@H]1O5` [Compound 39, 17-cyclopropylmethyl-3,14β-dihydroxy-4,5α-epoxy-6α-(N-methylhexanamido)morphinan.cndot.tartrate], at κ receptor, the “receptor selectivity of agonist (κ)” value was “selective agonists for κ receptors” and the “Ke, norBNI” value stood at 1.01 nM. In addition, in data set [3], half-maximal inhibition (IC50) required 0.568 nM. Besides, on δ receptor (setting [7]), the “Ke, NTI” value is recorded as 99.3 nM. The “Ke, Naloxone” value on μ receptor amounted to 89.9 nM. The ED50 in data set [4] (setting [6]) is 8.8 µg/kg. In data set [5], this compound returned an ED (200% urine output) of 4.1 µg/kg and an ED (500% urine output) of 228 µg/kg.
For the compound `CN(C(=O)OCc1ccccc1)[C@H]1CC[C@@]2(O)[C@H]3Cc4ccc(O)c5c4[C@@]2(CCN3CC2CC2)[C@H]1O5` [Compound 42, 17-cyclopropylmethyl-3,14β-dihydroxy-4,5α-epoxy-6α-(N-methylbenzyloxycarbamido)morphinan.cndot.tartrate], at κ receptor, the “receptor selectivity of agonist (κ)” value is “selective agonists for κ receptors” and the “Ke, norBNI” value is 0.905 nM. Moreover, the IC50 (usually the concentration that inhibits the measured activity by half) in data set [3] was 0.251 nM. Moreover, at δ receptor (setting [7]), the “Ke, NTI” value is given as 63.5 nM. Moreover, at μ receptor, the “Ke, Naloxone” value is 186 nM. In addition, in data set [4] (setting [6]), the ED50 is 1.36 µg/kg. Besides, the analgesic activity result in data set [4] is reported as “particularly strong analgesic activity”. In addition, in data set [5], the ED (200% urine output) was 0.85 µg/kg, the ED (500% urine output) was 6.1 µg/kg and the “Diuretic action (in words)” value is reported as “extremely strong diuretic action”.
For `CCCCOC(=O)N(C)[C@H]1CC[C@@]2(O)[C@H]3Cc4ccc(O)c5c4[C@@]2(CCN3CC2CC2)[C@H]1O5` [Compound 47, 17-cyclopropylmethyl-4,5α-epoxy-3,14β-dihydroxy-6α-(N-methylbutyroxycarbamido)morphinan.cndot.tartrate], at κ receptor, the “receptor selectivity of agonist (κ)” value is given as “selective agonists for κ receptors” and the “Ke, norBNI” value amounted to 0.140 nM. The compound also had an IC50 in data set [3] of 0.439 nM. In addition, the “Ke, NTI” value on δ receptor (setting [7]) stood at 10.4 nM. On μ receptor, the “Ke, Naloxone” value worked out at 63.5 nM. For the same compound, in data set [4] (setting [6]), the ED50 amounted to 0.52 µg/kg. Also, in data set [4], the analgesic activity entry is given as “particularly strong analgesic activity”. This compound registered an ED (200% urine output) in data set [5] of 1.6 µg/kg.
Take `CN(C(=O)CSc1ccccc1)[C@H]1CC[C@@]2(O)[C@H]3Cc4ccc(O)c5c4[C@@]2(CCN3CC2CC2)[C@H]1O5` [Compound 45, 17-cyclopropylmethyl-4,5α-epoxy-3,14β-dihydroxy-6α-(N-methylthiophenoxyacetamido)morphinan.cndot.tartrate]: on κ receptor, the “receptor selectivity of agonist (κ)” value was “selective agonists for κ receptors” and the “Ke, norBNI” value worked out at 0.416 nM. Also, the half-maximal inhibitory concentration (IC50) in data set [3] came out at 0.185 nM. Moreover, the “Ke, NTI” value on δ receptor (setting [7]) amounted to 135 nM. The “Ke, Naloxone” value at μ receptor was 26.5 nM. The compound further registered a 50% effective dose (ED50) in data set [4] of 3.8 µg/kg. In addition, in data set [5], the ED (200% urine output) worked out at 8.1 µg/kg and the ED (500% urine output) was found to be 857 µg/kg.
On to `CN(C(=O)COc1ccccc1)[C@H]1CC[C@@]2(O)[C@H]3Cc4ccc(O)c5c4[C@@]2(CCN3CC2CC2)[C@H]1O5` [Compound 38, 17-cyclopropylmethyl-3,14β-dihydroxy-4,5α-epoxy-6α-(N-methylphenoxyacetamido)morphinan.cndot.hydrochloride], for which, at κ receptor, the “receptor selectivity of agonist (κ)” value was “selective agonists for κ receptors” and the “Ke, norBNI” value was 4.65 nM. In addition, the IC50 in data set [3] turned out to be 0.349 nM. Moreover, on δ receptor (setting [7]), the “Ke, NTI” value worked out at 16.6 nM. For the same compound, the “Ke, Naloxone” value at μ receptor was determined as 411 nM. In addition, the ED50 in data set [4] (setting [6]) was 3.52 µg/kg. Moreover, in data set [5], the ED (200% urine output) amounted to 3.8 µg/kg and the ED (500% urine output) was determined as 281 µg/kg.
Regarding `CN(C(=O)/C=C/c1cccc(F)c1)[C@H]1CC[C@@]2(O)[C@H]3Cc4ccc(O)c5c4[C@@]2(CCN3CC2CC2)[C@H]1O5` [Compound 96, 17-cyclopropylmethyl-3,14β-dihydroxy-4,5α-epoxy-6α-(N-methyl-3-fluorocinnamamido)morphinan.cndot.tartrate], the “Ke, norBNI” value at κ receptor is given as 4.21 nM. This compound registered an IC50 in data set [3] of 0.346 nM. Besides, the “Ke, NTI” value at δ receptor (setting [7]) came to 1.61 nM. The “Ke, Naloxone” value on μ receptor was 32.5 nM. In addition, the ED50 in data set [4] (setting [6]) came to 0.86 µg/kg. Besides, the analgesic activity entry in data set [4] was “particularly strong analgesic activity”. Further, in data set [5], the ED (200% urine output) worked out at 1.3 µg/kg and the ED (500% urine output) was 54.9 µg/kg.
On to `CN(C(=O)CCc1ccccc1)[C@H]1CC[C@@]2(O)[C@H]3Cc4ccc(O)c5c4[C@@]2(CCN3CC2CC2)[C@H]1O5` [Compound 22, 17-Cyclopropylmethyl-4,5α-epoxy-3,14β-dihydroxy-6α-(N-methyl-3-phenylpropionamido)morphinan.cndot.tartrate], for which, at κ receptor, the “receptor selectivity of agonist (κ)” value was “selective agonists for κ receptors” and the “Ke, norBNI” value was 5.53 nM. In data set [3], this compound had an IC50 of 1.2 nM. The “Ke, NTI” value at δ receptor (setting [7]) amounted to 545 nM. Besides, the “Ke, Naloxone” value on μ receptor came out at 800 nM. The ED50 in data set [4] (setting [6]) was determined as 5.1 µg/kg. Moreover, in data set [5], the ED (200% urine output) came out at 0.95 µg/kg, the ED (500% urine output) is 17 µg/kg and the “Diuretic action (in words)” value is “extremely strong diuretic action”.
